Source: US20070142363A1, “Novel diazabicyclonene derivatives and use thereof” (ACTELION PHARMACEUTICALS LTD, priority 2003, published 2007)

Target: T1, human recombinant renin (Homo sapiens, UniProt P00797)
T1 sequence (P00797 67-406): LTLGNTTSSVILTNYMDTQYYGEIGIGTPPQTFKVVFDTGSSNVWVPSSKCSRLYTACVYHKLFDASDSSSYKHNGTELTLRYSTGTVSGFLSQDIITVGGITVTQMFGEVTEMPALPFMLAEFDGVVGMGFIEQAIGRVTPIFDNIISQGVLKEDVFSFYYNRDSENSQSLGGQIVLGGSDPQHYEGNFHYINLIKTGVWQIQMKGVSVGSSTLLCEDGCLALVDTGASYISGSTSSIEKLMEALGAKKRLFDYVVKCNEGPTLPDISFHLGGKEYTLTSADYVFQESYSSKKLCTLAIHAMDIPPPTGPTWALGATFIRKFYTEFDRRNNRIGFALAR
Assay: Inhibition of human recombinant renin (enzymatic in vitro assay, Ang I detected by EIA)
Format: biochemical
Settings: human recombinant renin 0.16 ng/mL, synthetic human angiotensin(1-14) 0.5 μM, 37° C. for 3 h
Protocol: Inhibition of Human Recombinant Renin by the Compounds of the Invention The enzymatic in vitro assay was performed in 384-well polypropylene plates (Nunc). The assay buffer consisted of 10 mM PBS (Gibco BRL) including 1 mM EDTA and 0.1% BSA. The incubates were composed of 50 μL per well of an enzyme mix and 2.5 μL of renin inhibitors in DMSO. The enzyme mix was premixed at 4° C. and consists of the following components: • human recombinant renin (0.16 ng/mL) * synthetic human angiotensin(1-14) (0.5 μM) • hydroxyquinoline sulfate (1 mM) The mixtures were then incubated at 37° C. for 3 h. To determine the enzymatic activity and its inhibition, the accumulated Ang I was detected by an enzyme immunoassay (EIA) in 384-well plates (Nunc). 5 μL of the incubates or standards were transferred to immuno plates which were previously coated with a covalent complex of Ang I and bovine serum albumin (Ang I—BSA). 75 μL of Ang I-antibodies in essaybuffer above including 0.01% Tween 20 were added and a primary incubation made at 4° C. overnight. The plates were washed 3 times with PBS including 0.01% Tween 20, and then incubated for 2 h at rt with an antirabbit-peroxidase coupled antibody (WA 934, Amersham).

IC50 [nM] | Structure (SMILES)
1.43 | Cc1cc(Cl)c(OCCOc2ccc(C3=C(C(=O)N(Cc4ccnc(OCCO)c4C)C4CC4)[C@H]4CNC[C@@H](C3)N4)cc2)c(Cl)c1 (racemic) [Example 4, (rac.)-(1R*, 5S*)-7-{4-[2-(2,6-Dichloro-4-methylphenoxy)ethoxy]phenyl}-3,9-diazabicyclo[3.3.1]non-6-ene-6-carboxylic Acid Cyclopropyl-[2-(2-hydroxy-ethoxy)-3-methylpyridin-4-ylmethyl]amide]
0.49 | Cc1cc(Cl)c(OCCOc2ccc(C3=C(C(=O)N(Cc4ccnc(OCCCO)c4C)C4CC4)[C@H]4CNC[C@@H](C3)N4)cc2)c(Cl)c1 (racemic) [Example 2, (rac.)-(1R*, 5S*)-7-{4-[2-(2,6-Dichloro-4-methylphenoxy)ethoxy]phenyl}-3,9-diazabicyclo[3.3.1]non-6-ene-6-carboxylic Acid Cyclopropyl-[2-(3-hydroxy-propoxy)-3-methylpyridin-4-ylmethyl]amide]
1.16 | Cc1c(CN(C(=O)C2=C(c3ccc(CCCOc4c(F)ccc(F)c4Cl)cc3)C[C@@H]3CNC[C@H]2N3)C2CC2)ccnc1OCCCO (racemic) [Example 1, (rac.)-(1R*, 5S*)-7-{4-[3-(2-Chloro-3,6-difluorophenoxy)propyl]phenyl}-3,9-diazabicyclo[3.3.1]non-6-ene-6-carboxylic Acid Cyclopropyl-[2-(3-hydroxy-propoxy)-3-methylpyridin-4-ylmethyl]amide]
0.82 | Cc1c(CN(C(=O)C2=C(c3ccc(CCCOc4c(F)ccc(F)c4Cl)cc3)C[C@@H]3CNC[C@H]2N3)C2CC2)ccnc1OCCO (racemic) [Example 3, (rac.)-(1R*, 5S*)-7-{4-[3-(2-Chloro-3,6-difluorophenoxy)propyl]phenyl}-3,9-diazabicyclo[3.3.1]non-6-ene-6-carboxylic Acid Cyclopropyl-[2-(2-hydroxy-ethoxy)-3-methylpyridin-4-ylmethyl]amide]
